Data set [1] deals with purified rat brain tubulin. Nature of the data set: Tubulin polymerization kinetics, absorbance at 350 nm. It is filed as biochemical. As to conditions: for in vitro tubulin polymerization activity (in words) / maximum degree of tubulin polymerization compared with epothilone A (1): A350. The protocol:
(§1) The cytotoxicity analysis was supplemented with data from two independent in vitro tubulin polymerization assays. In one assay, the fraction of tubulin polymerized into microtubules upon exposure to a given concentration of the respective compound was determined (see Table 2). In the other assay, tubulin polymerization kinetics upon exposure to the respective compounds was determined using purified rat brain tubulin through measurement of the absorbance at 350 nm (see FIG. 3). For this analysis, paclitaxel, epothilone A (1) and epothilone B (2) were used as controls while compounds 9, 11 and 12 were selected for in vitro analysis.

Data set [2] relates to PTX10 (β270) paclitaxel-selected β-tubulin mutant clone of 1A9. Briefly: 72 h growth inhibition assay (SRB), paclitaxel-selected clone PTX10. It counts as cell-based, human. The protocol: (§2) The biological activities of the synthesized epothilones were evaluated through cytotoxicity and tubulin polymerization assays. Cytotoxicity was first evaluated in a set of ovarian carcinoma cell lines, including a parental cell line (IA9) and three drug-resistant cell lines, namely the paclitaxel-resistant cell lines (Giannakakou, P.; et al. J. Biol. Chem. 1997, 272, 17118-17125) IA9/PTX10 and IA9/PTX22 and the epothilone-resistant cell line (Giannakakou, P.; et al. Proc. Natl. Acad. Sci. USA 2000, 97, 2904-2909) 1A9/A8. These resistant cell lines harbor distinct acquired P-tubulin mutations which affect drug-tubulin interaction and result in impaired taxane and epothilone-driven tubulin polymerization. Further cytotoxicity studies were undertaken using a set of human epidermoid cancer cell lines, including a parent cell line (KB-31), and a paclitaxel-resistant (due to P-gp overexpression) cell line (KB-8511).
(§3) IC50 values for each compound are given in nM and represent the mean of 3-5 independent experiments±standard error of the mean. Relative resistance (RR) is calculated as an IC50 value for each resistant subline divided by that for the parental cell line (1A9).^b Data from reference 3. CP=cyclopropyl, CB=cyclobutyl, na=not applicable, nd=not determined, py=5-methylpyridine side chain.

Data set [3] deals with A8 (β274) epothilone-selected β-tubulin mutant clone of 1A9. Nature of the data set: 72 h growth inhibition assay (SRB), epothilone-selected clone A8. It counts as cell-based, human. Here is the method: as §2, §3
Data set [4] concerns ovarian carcinoma (1A9, PTX10, PTX22, A8) and epidermoid (KB-31, KB-8511) cancer cell lines. Nature of the data set: Cytotoxicity, general statements over the cell line panel. It is filed as cell-based, human. Particulars: for cytotoxic activity (in words): cell line not specified or all cell lines. The protocol:
as §2, §3
(§4) FIG. 16 is a table of tubulin polymerization potency^a and cytotoxicity^b of epothilones 1 through 12 and paclitaxel against human epidermoid cancer cell lines.^a% TP=percent tubulin polymerized after incubation of tubulin with a known concentration of compound (typically 3 μM).^b Cytotoxicity towards human cancer cell lines as IC50 values given in nM. KB-31: epidermoid Taxol®-sensitive, KB-8511: epidermoid Taxol®-resistant (due to P-gp over expression).

Another data set concerns tubulin. Briefly: In vitro tubulin polymerization, fraction of tubulin polymerized (% TP). It counts as biochemical. Here is the method: as §1, §4
Data set [5] relates to 1A9 human ovarian carcinoma cells. Nature of the data set: 72 h growth inhibition assay (SRB), parental 1A9 cells. It is filed as cell-based. The protocol: as §2, §3
The test system of data set [6] is PTX22 (β364) paclitaxel-selected β-tubulin mutant clone of 1A9. Nature of the data set: 72 h growth inhibition assay (SRB), paclitaxel-selected clone PTX22. It is filed as cell-based. Particulars: Homo sapiens, read-out: IC50 against PTX22. The protocol: as §2, §3
Data set [7] concerns KB-31 human epidermoid cancer cell line (Taxol-sensitive). Nature of the data set: Cytotoxicity against human epidermoid cancer cell line KB-31. It is filed as cell-based. As to conditions: parental sensitive KB-31 cells; 3 compared with epothilone A (1). The protocol: as §2, §4

“Also recorded” adds a separate entry of the source.

From patent US7358266B2, “Cyclopropyl and cyclobutyl epothilone analogs” (The Scripps Research Institute, priority 2001, dated 2008) come the findings set out here.

Consider `C/C(=C\c1csc(C)n1)[C@@H]1C[C@@H]2O[C@@H]2CCC[C@H](C)[C@H](O)[C@@H](C)C(=O)C(C)(C)[C@@H](O)CC(=O)O1` [Compound 1, epothilone A], for which the “time to A350=0.25” value in data set [1] (polymerization kinetics) amounted to 2 min.

As to `C/C(=C\c1ccc(C)cn1)[C@@H]1C[C@@H]2C[C@@H]2CCC[C@H](C)[C@H](O)[C@@H](C)C(=O)C(C)(C)[C@@H](O)CC(=O)O1` [Compound 9], the “activity against clone PTX10 versus parental line (in words)” value in data set [2] was “lose some activity”. The “activity against clone A8 versus parental line (in words)” value in data set [3] was “lose some activity”. The “cytotoxic activity (in words)” value in data set [4] is recorded as “highly active; also recorded: increased cytotoxic activity; also recorded: cytotoxic agents”. In addition, the “factor less active than 11” value in data set [4] (cytotoxicity relative to analog 11) is reported as “three to five”. Moreover, the “tubulin polymerization promotion (in words)” value with tubulin is listed as “potent tubulin polymerization promoters”. In data set [1], the “in vitro tubulin polymerization activity (in words)” value is “good in vitro activity” and the “maximum degree of tubulin polymerization compared with epothilone A (1)” value is listed as “smaller”.

Consider `C/C(=C\c1ccc(C)cn1)[C@@H]1C[C@@H]2C[C@H]2CCC[C@H](C)[C@H](O)[C@@H](C)C(=O)C(C)(C)[C@@H](O)CC(=O)O1` [Compound 11, (12R, 13S, 15S)-cyclopropyl 5-methylpyridine epothilone A], for which the IC50 in data set [5] (Homo sapiens, Ovarian carcinoma cell, 1A9, 72 h, SRB, read-out: IC50 in the 1A9 human ovarian carcinoma cell line) is 0.6 nM; in data set [2] (Homo sapiens, 72 h, SRB, read-out: IC50 against PTX10) it was below 10 nM; in data set [6] it was below 10 nM; in data set [3] (Homo sapiens, 72 h, SRB, read-out: IC50 against A8) it was below 10 nM. The “activity against clone PTX10 versus parental line (in words)” value in data set [2] was “lose some activity”. The “activity against clone A8 versus parental line (in words)” value in data set [3] was “lose some activity”. In addition, the “cytotoxic activity (in words)” value in data set [4] was “outstanding activity; also recorded: increased cytotoxic activity; also recorded: cytotoxic agents”. Also, the “tubulin polymerization promotion (in words)” value in the data set on tubulin is “potent tubulin polymerization promoters”. For the same compound, in data set [1], the “in vitro tubulin polymerization activity (in words)” value is “good in vitro activity”. In addition, the “maximum degree of tubulin polymerization compared with epothilone A (1)” value in data set [1] was “smaller”.

For `C/C(=C\c1csc(C)n1)[C@@H]1C[C@@H]2C[C@@H]2CCC[C@H](C)[C@H](O)[C@@H](C)C(=O)C(C)(C)[C@@H](O)CC(=O)O1` [Compound 3, cyclopropyl epothilone A], the “inhibition of 1A9 cell growth (in words)” value in data set [5] (parental sensitive 1A9 cells, 3 compared with epothilone A (1)) was “slightly more potently”. The “activity against clone PTX10 versus parental line (in words)” value in data set [2] is recorded as “lose some activity”. Also, the “activity against clone A8 versus parental line (in words)” value in data set [3] was “lose some activity”. The “inhibition of KB-31 cell growth (in words)” value in data set [7] is “slightly more potently”. Also, the “cytotoxic activity (in words)” value in data set [4] is reported as “cytotoxic agents”. The “tubulin polymerization promotion (in words)” value with tubulin is reported as “potent tubulin polymerization promoters”.

Consider “15S-cyclobutyl epothilone A [Compound 4]”, for which the “activity against clone PTX10 versus parental line (in words)” value in data set [2] is “lose some activity”. In addition, the “activity against clone A8 versus parental line (in words)” value in data set [3] is on record as “lose some activity”. In addition, the “cytotoxic activity (in words)” value in data set [4] was “retains good activity; also recorded: cytotoxic agents”. Moreover, the “tubulin polymerization promotion (in words)” value in the data set with tubulin was “potent tubulin polymerization promoters”.

For orientation: IC50 means the concentration that gives 50% inhibition.
